Results as given in patent US20030078304A1, “Method of inhibiting the expression of inflammatory cytokines and chemokines” (priority 2000, published 2003).

Test system: NF-κB
Test: NF-κB-dependent luciferase reporter gene assay in UV-C exposed HeLa cells
Assay type: cell-based, human
Protocol: HeLa cells were transfected with a NF-κB-dependent reporter gene and exposed to UV-C 24 hours after transfection. Pretreatment with Astaxanthin was done 3 hours prior to irradiation, where indicated. Cells were harvested and luciferase activity was measured 14-18 hours following exposure. The ratio between Firefly and Renilla luciferase activity is represented as fold activation over the activity in unstimulated control cells. The standard error is based on two identical experiments.
The human […] cell line Hela Tet/off was cultured in MEM alpha medium supplemented with 10% fetal calf serum, penicillin and streptomycin (Gibco Grand Island, N.Y.). The day before transfection, cells were plated on 6 cm dishes in a medium containing 2.5% fetal calf serum. On the day of transfection, the cell culture medium was changed to fresh medium (2.5% fetal calf serum).
A stock solution of Astaxanthin was prepared by dissolving synthetic Astaxanthin (Sigma) in 99.6% ethanol. The concentration of Astaxanthin was measured by spectrophotometry, and the absorbance maximum at 474-479 run was used to calculate the concentration, according to the formula: Absmax/210.
The 6XκB-Luc plasmid contains a firefly luciferase reporter gene driven by 6 NF-κB binding sites cloned upstream of a TK promoter (Meyer et al. 1993). […]

CC1=C(/C=C/C(C)=C/C=C/C(C)=C/C=C/C=C(C)/C=C/C=C(C)/C=C/C2=C(C)C(=O)[C@@H](O)CC2(C)C)C(C)(C)C[C@H](O)C1=O [Astaxanthin]
effect on the activation of NF-κB effected by UV exposure (HeLa cells transfected with NF-κB-dependent reporter gene, UV-C, pretreatment 3 hours prior to irradiation (FIG. 1)): inhibits the activation of NF-κB effected by UV exposure
repression of UV-C induced activation of NF-κB-dependent reporter gene (HeLa cells, 6xκB-Luc reporter, UV-C 10 J/m^2, Astaxanthin pretreatment 3 hours at the highest concentration, luciferase 14-18 hours after exposure): ~3 fold
